Data on two molecules can be found in paper PMC7360964, “Auto‐inhibition of Mif2/CENP‐C ensures centromere‐dependent kinetochore assembly in budding yeast” (The EMBO Journal, 2020).

One assay concerns Mtw1‐GFP kinetochores. Description: Kinetochore microscopy (Mtw1-GFP, Spc42-mCherry) in Mif2-overexpressing cells. Type of assay: cell-based, budding yeast. The note with it: large-budded cells, galactose, 100 cells per strain, 2 independent experiments. As to the method: Figure 8 Auto‐inhibition of Mif2 is crucial for chromosome segregation and cell viability • Phenotypic analysis of Mif2 mutants using a galactose‐inducible overexpression system. Strains harboring the indicated Mif2 expression constructs on pESC plasmids were plated in serial dilution on doHIS‐glucose or doHIS‐raffinose/galactose plates and incubated at 30°C. • Serial dilution assay of chromosomally integrated Mif2 variants under the control of the pGAL promoter. Strains were plated on YEP‐glucose and YEP‐raffinose/galactose plates and incubated at 25°C. • Analysis of chromosome segregation in strains from (B). Distribution of fluorescently labeled chromosome III was analyzed in large‐budded cells 16 h after switching the medium to galactose. Scale bar represents 2 μm. • Microscopic analysis of kinetochores in Mif2‐overexpressing cells visualizing Mtw1‐GFP and Spc42‐mCherry. Images of representative large‐budded cells after 16 h in galactose are shown. One kinetochore cluster is enlarged in the white box for each strain. Scale bar represents 5 μm. […] Only large‐budded cells were included in the analysis. • Quantification of (D) in which large‐budded cells were classified according to their Mtw1‐GFP signal into the four indicated groups. A total of 100 cells were quantified for every strain. Mean values of the three indicated groups were calculated and plotted in a bar chart. […]

The next assay relates to budding yeast. The note with it: ref Hornung et al, 2014; cited from earlier work. An excerpt: Figure 1 Ame1 and Mif2 are Mtw1c receptors that promote outer kinetochore assembly Left panel: Comparison of kinetochore assembly plans. Generally, inner kinetochores are represented by the […] centromere‐associated network (CCAN) of which Ame1 and Mif2 are the only essential subunits in S. cerevisiae. Right panel: Among other functions, Ame1 and Mif2 both act as receptors for the outer kinetochore component Mtw1c using short binding motifs at their N‐termini. An Ame1ΔN is lethal, while a Mif2ΔN mutant is viable. Two different scenarios for Mtw1c‐receptor configurations are indicated.

For a further assay, the system named is Mif2‐FRB strains. Put plainly: Anchor-away growth assay, Mif2 alleles. Type of assay: cell-based, budding yeast. The conditions noted are these: rapamycin.
The subject of a further assay is yeast growth. Put plainly: Galactose-inducible overexpression growth assay (serial dilution). Type of assay: cell-based, budding yeast. The conditions noted are these: two-micron pESC plasmid, 30°C. An excerpt: What is the consequence of expressing Mif2^Ame1‐N swap in cells? […] To assess this effect in a more systematic manner, we expressed Mif2‐wt, Mif2‐ΔN, or Mif2^Ame1‐N swap under the control of a galactose‐inducible promoter in an otherwise wild‐type background. […] To further analyze the toxic effect of Mif2^Ame1‐N swap in cells, we stably integrated the different Mif2 versions under the control of the GAL10 promoter at the URA3 locus and again analyzed growth on plates. We included an additional strain in which Mif2 swap was mutated so that it cannot bind Mtw1c (R10E mutation in the RxxG motif). […]
Figure 8 Auto‐inhibition of Mif2 is crucial for chromosome segregation and cell viability • Phenotypic analysis of Mif2 mutants using a galactose‐inducible overexpression system. […] Distribution of fluorescently labeled chromosome III was analyzed in large‐budded cells 16 h after switching the medium to galactose. […] Only large‐budded cells were included in the analysis. • Quantification of (D) in which large‐budded cells were classified according to their Mtw1‐GFP signal into the four indicated groups. A total of 100 cells were quantified for every strain. Mean values of the three indicated groups were calculated and plotted in a bar chart. […]

Another assay has as its system MN. Put plainly: Analytical SEC of Mif2 variants with MN. The class given is binding, budding yeast. The note with it: 10 μM, 1 h at 4°C. An excerpt: (§1) If intramolecular interactions between the Mif2 N‐terminus and other parts of the molecule limit the ability to bind MN, then removing this auto‐inhibitory domain should increase the affinity for MN. […] We conclude that apart from residues in its N‐terminus, also residues in the signature motif and AT‐hook of Mif2 are responsible for the ability to adopt an auto‐inhibited conformation.
(§2) Figure 6 Mif2 auto‐inhibition depends on its Cse4 and DNA‐binding motifs • Schematic introduction of Mif2wt and Mif2‐ΔsigAT in which its Cse4 and DNA‐binding motifs have been removed. […]
(§3) The GST pulldown experiment was performed using BSA‐preblocked GSH Sepharose beads. […] Beads were washed twice in pulldown buffer, before Laemmli sample buffer was added to the beads (GST pulldown) or proteins were eluted in pulldown buffer supplemented with 1 mg/ml Flag peptide before addition of Laemmli sample buffer (Flag pulldown) and samples were analyzed on a Coomassie Brilliant Blue‐stained SDS–PAGE gel or Western blotting. […] Elution of proteins was monitored at 280 nm. 100 μl fractions were collected and analyzed by SDS–PAGE and Coomassie Brilliant Blue staining or Western blotting. […] After several washes with lysis buffer, proteins were eluted with 0.2 mg/ml 3xFlag peptide in lysis buffer, and fractions were analyzed by Western blotting. […]

For a further assay, the system named is Mtw1‐Nnf1 complex (MN). Put plainly: Flag pulldown of MN by Mif2 variants. The class given is binding, budding yeast. The note with it: bait 1 μM, MN 3 μM; Coomassie or Western blot against His-tag on Nnf1.
Excerpt: as §1, §2, §3

For the molecule “Mif2‐ΔN: Mif2 lacking the N-terminus (Mif2-D1-35)”, the “kinetochore signal localization” value in the assay with Mtw1‐GFP kinetochores is on record as “closely associated with spindle pole bodies”. Besides, the “viability / phenotype” value in the assay with budding yeast is listed as “viable”. In addition, the “viability” value in the assay with Mif2‐FRB strains (ctf3 or chl4 deletion backgrounds) is “lethality”. For the same molecule, in the assay on Mif2‐FRB strains (ctf19Δ background), the “rescue of Mif2-FRB lethality” value was “not Mif2‐ΔN, was able to rescue the lethality”. Further, the “effect of overexpression on growth” value in the assay with yeast growth is “tolerated well and did not greatly impact yeast viability”.

B1: Mif2‐ΔsigAT: Mif2 variant that lacks signature motif and AT-hook (protein)
chain: MDYMKLGLKSRKTGIDVKQDIPKDEYSMENIDDFFKDDETSLISMRRKSRRKSSLFLPSTLNGDTKNVLPPFLQSYKSQDDEVVQSPSGKGDGSRRSSLLSHQSNFLSPANDFEPIEEEPEQEENDIRGNDFATPITQKLSKPTYKRKYSTRYSLDTSESPSVRLTPDRITNKNVYSDVPDLVADEDDDDRVNTSLNTSDNALLEDELEDDGFIPESEEDGDYIESDSSLDSGSDSASDSDGDNTYQEVEEEAEVNTNDNEDDYIRRQASDVVRTDSIIDRNGAKENLIPEDPNEDIIERIESGGIENGEWLKHGILEANVKISDTKEETKDEIIAFAPNLSQTEQVKDTKDENFALEIMFDKHKEYFASGILKLPAISGQKKLSNSFRTYITFHVIQGIVEVTVCKNKFLSVKGSTFQIPAFNEYAIANRGNDEAKMFFVQVTVSEDANDDNDKELDSTFDTFG
modifications: left off: Flag, C-terminal, kept
notes: Mif2 variant that lacks signature motif and AT-hook
For B1, the “binding to MN by SEC” value with MN is on record as “increased binding to MN as compared to Mif2‐wt”. For the same molecule, in the assay on Mtw1‐Nnf1 complex (MN), the “co-purification of MN” value is on record as “able to co‐purify a significantly increased amount of MN”. Further, the “effect of overexpression on growth” value with yeast growth was “impairs growth”.
